{"source": "patent US10512667B2", "about": "“Compositions and methods for treating conditions related to adrenocortical activity and/or excessive steroid production” (The Regents of the University of Michigan, priority 2017, dated 2019)", "key": {"[1]": {"system": "adrenal cortex", "conditions": "in vivo; cited from earlier work"}, "[2]": {"system": "H295R cells", "test": "Cell morphology by phase contrast microscopy", "format": "cell-based", "conditions": "30 h, phase contrast, hydrochloride", "method": "FIG. 4E: […] The cells were cultured with DMSO vehicle (upper images) or with 40 μM ATR-101 (lower images) alone (left images), or in combination with 1.5 mM MβCD (middle images), or in combination with 40 μM cholesterol (right images). Cell morphology was visualized by phase contrast microscopy using a 10× objective. The images are representative of 5 fields under each set of culture conditions. The scale bars denote 100 μm."}, "[3]": {"system": "BD140C cells", "test": "Visualization of cholesterol levels by filipin III binding", "format": "cell-based", "conditions": "4 h", "in_short": "(§1)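 Cells adhered 48 h, treated with compounds, fixed in 4% paraformaldehyde 20 min, then stained with 100 μg/ml filipin III for 2 h at 37 C in the dark and imaged. Esterification visualized after 2 h culture with 1 μM NBD-cholesterol following compound incubation.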"}, "[4]": {"system": "H295R cells", "test": "Visualization of cholesterol levels by filipin III binding", "format": "cell-based", "conditions": "H295R cells; for cholesterol level / accumulation (filipin III binding), compound alone: serum-containing medium", "in_short": "as §1"}, "[5]": {"system": "BD140C cells", "test": "Visualization of NBD-cholesterol esterification", "format": "cell-based", "conditions": "compound 2 h then 2 h with NBD-cholesterol", "method": "(§2) The cells were seeded in 96-well ibiTreat μ-Plates and allowed to adhere for 48 h prior to the start of each experiment. Cholesterol was detected in fixed cells by incubating with 100 μg/ml filipin III at 37 C for 2 h. The bound filipin III was imaged by fluorescence microscopy using 377/11 nm excitation and 447/60 nm emission wavelengths. Images were captured using either a 4× or a 60× objective. Cholesterol esterification was visualized by culturing the cells with 1 μM NBD-cholesterol for 2 h following incubation with the indicated compounds. NBD-cholesterol esters were imaged by fluorescence microscopy using 485/20 nm excitation wavelengths. Images were captured using either a 20× or a 60× objective.\n(§3) The cells were seeded in 96-well ibiTreat μ-Plates (Ibidi) in 100 μl at a density of 50,000 cells per well. […] 5 μl of NBD-cholesterol was added to each well to produce a final concentration of 1 μM. When NBD-cholesterol is esterified and localized to cytoplasmic lipid droplets, it produces bright fluorescent foci in the cell. The inhibition of ACAT activity prevents fluorescent focus formation by NBD-cholesterol (see, e.g., Lada, et al., 2004 J Lipid Res, 45, 378-86). After 1.5 h, 5 μl of Hoechst 33342 was added to each well to produce a final concentration of 3 μg/ml. After 30 min, the medium was replaced with fresh medium. NBD-cholesterol esterification was visualized by fluorescence microscopy using either 485/20 nm (NBD) or 387/11 nm (Hoechst) excitation wavelengths and images were captured using either a 60× oil objective or a 20× objective."}, "[6]": {"system": "H295R cells", "test": "Visualization of NBD-cholesterol esterification", "format": "cell-based", "conditions": "compound 2 h then 2 h with NBD-cholesterol, hydrochloride", "method": "as §2, §3"}, "[7]": {"system": "H295R cells", "test": "Cortisol secretion (indirect ELISA)", "format": "cell-based"}, "[8]": {"system": "ACC cell xenografts", "conditions": "nude mice; cited from earlier work"}, "[9]": {"system": "BD140C cells", "test": "Cellular ATP level (CellTiter-Glo)", "format": "cell-based", "procedure": "The ATP levels of cells were measured by lysis in CellTiter-Glo reagent (Promega), and measurement of the luminescence.\nAfter 48 h, 20-80 μl of medium was removed from each well and replaced with 20 μl of each compound diluted to 6× of the final concentration in the culture medium to produce a final volume of 120 μl. The cells were incubated at 37 C in 5% CO2 atmosphere for a time ranging from 15 min to 24 h. The medium was removed and immediately replaced with 50 μl of CellTiter-Glo luminescence cell viability assay reagent (Promega). The cells were lysed by agitation at room temperature for 20 min in the dark. The luminescence was measured using a SpectraMax M5 microplate reader (Molecular Devices) with a 0.5 s acquisition time. The luminescence (RLU) values for control cells ranged from 5000 to 20000 RLU in all experiments, and were scaled by a factor of 0.001 to plot all graphs."}, "[10]": {"system": "H295R cells", "test": "Cellular ATP level (CellTiter-Glo)"}}, "note": "Entries after “also recorded” stand apart in the source; their conditions may differ.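 For concentration required for ATP depletion and caspase activation relative to the concentration that inhibited cholesterol esterification in this document: ATP quantified by luminescence after lysing the cells in CellTiter-Glo reagent, with compound exposure at 37 °C under 5% CO2.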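 For fold lower concentration that reduced the ATP level in combination than required separately in this document: ATP quantified by luminescence after lysing the cells in CellTiter-Glo reagent, with compound exposure at 37 °C under 5% CO2.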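 For time after ATR-101 addition at which ATP depletion was detected in this document: ATP quantified by luminescence after lysing the cells in CellTiter-Glo reagent, with compound exposure at 37 °C under 5% CO2.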", "data": [{"smiles": "CC(C)c1cccc(C(C)C)c1NC(=O)NCC1(c2ccc(N(C)C)cc2)CCCC1.Cl", "note": "[ATR-101, N-(2,6-bis(1-methylethyl)phenyl)-N′-((1-(4-(dimethylamino)phenyl)cyclopentyl)methyl)urea hydrochloride]", "values": [{"measurement": "adrenalytic activity", "setting": "[1]", "result": "has adrenalytic activity"}, {"measurement": "cell morphology, compound alone", "setting": "[2]", "result": "small, rounded and weakly attached to the plate"}, {"measurement": "cholesterol level / accumulation (filipin III binding), compound alone", "setting": "[3]", "result": "caused cholesterol accumulation in or near the plasma membrane"}, {"measurement": "cholesterol level / accumulation (filipin III binding), compound alone", "setting": "[4]; 24 h", "result": "increase in intracellular cholesterol"}, {"measurement": "cholesterol level / accumulation (filipin III binding), compound alone", "setting": "[4]; up to 4 h, hydrochloride", "result": "caused cholesterol accumulation in or near the plasma membrane; also recorded: increase in cholesterol accumulation in the plasma membrane; also recorded: higher levels of filipin III binding to the plasma membrane"}, {"measurement": "cholesterol level (filipin III binding), compound alone", "setting": "[4]; serum-free medium containing apoA-I, 4 h, hydrochloride", "result": "increased the level of cholesterol in intracellular membranes; also recorded: increased the cholesterol levels; also recorded: higher cholesterol levels"}, {"measurement": "NBD-cholesterol esterification and accumulation in lipid droplets", "setting": "[5]", "result": "inhibited NBD-cholesterol esterification"}, {"measurement": "NBD-cholesterol esterification and accumulation in lipid droplets", "setting": "[6]", "result": "inhibits NBD-cholesterol esterification; also recorded: eliminated both the intense foci and the diffuse fluorescence"}, {"measurement": "basal and forskolin-stimulated cortisol secretion", "setting": "[7]; 100 μM ATR-101, with or without 100 μM forskolin", "result": "blocked both basal and forskolin-stimulated cortisol secretion"}, {"measurement": "cortisol secretion, compound alone", "setting": "[7]; cortisol in medium, 4 h or time course, hydrochloride", "result": "inhibited cortisol secretion"}, {"measurement": "establishment and growth of ACC cell xenografts", "setting": "[8]", "result": "inhibits the establishment and impedes the growth"}, {"measurement": "ATP level, compound alone", "setting": "[9]; 4 h", "result": "reduced the ATP level"}, {"measurement": "ATP level, compound alone", "setting": "[9]; 24 h", "result": "reduced the ATP levels"}, {"measurement": "concentration required for ATP depletion and caspase activation relative to the concentration that inhibited cholesterol esterification", "setting": "[10]; ACC-derived cells, 4 h", "result": "more than two orders of magnitude higher"}, {"measurement": "time after ATR-101 addition at which ATP depletion was detected", "setting": "[10]; H295R cells, 100 μM ATR-101", "result": 30, "unit": "min"}, {"measurement": "fold lower concentration that reduced the ATP level in combination than required separately", "setting": "[10]; H295R cells, ATR-101 and rhodamine-123 in combination, 4 h", "result": 10, "unit": "fold"}, {"measurement": "ATP level, compound alone", "setting": "[10]; H295R cells, serum-containing medium, 4 h", "result": "reduced the ATP level"}, {"measurement": "ATP level, compound alone", "setting": "[10]; H295R cells, serum-containing medium, 24 h", "result": "reduced the ATP levels"}, {"measurement": "ATP level, compound alone", "setting": "[10]; H295R cells, serum-free medium, 4 h", "result": "caused ATP depletion"}]}]}
